# Measurements from patent US20080188483A1, “Compounds and Compositions as Protein Kinase Inhibitors” (IRM LLC, priority 2006, published 2008).
# Assays:
# [1] = biological target: T1, PDGFRβ (Ba/F3-Tel-PDGFRβ) (Homo sapiens, UniProt P09619); test: PDGFRβ cellular assay (Ba/F3-Tel-PDGFRβ proliferation); assay type: cell-based; settings: read-out: IC50 against PDGFRβ in the cellular assay
# T1 construct: expressed in transfected cells; host or cells: Ba/F3; the other entry of the earlier key: ETV6 (P41212, Transcription factor ETV6)
# [2] = biological target: T2, E255V Bcr-abl (Ba/F3 cells) (Homo sapiens, UniProt P00519, E255V); test: Proliferation of Ba/F3 cells expressing mutant Bcr-abl E255V; assay type: cell-based
# T2 construct: expressed in transfected cells; host or cells: Ba/F3; the other entry of the earlier key: BCR (P11274, Breakpoint cluster region protein)
# Method: (§1) 2D-p210 cells are plated into 96 well TC plates at a density of 15,000 cells per well. 50 μL of two fold serial dilutions of the test compound (Cmax is 40 μM) are added to each well (STI571 is included as a positive control). After incubating the cells for 48 hours at 37° C., 5% CO2, 15 μL of MTT (Promega) is added to each well and the cells are incubated for an additional 5 hours. The optical density at 570 nm is quantified spectrophotometrically and IC50 values, the concentration of compound required for 50% inhibition, determined from a dose response curve.
# (§2) Compounds of the invention are tested for their antiproliferative effect on Ba/F3 cells expressing either wild type or the mutant forms of BCR-Abl (G250E, E255V, T315I, F317L, M351T) that confers resistance or diminished sensitivity to STI571. The antiproliferative effect of these compounds on the mutant-BCR-Abl expressing cells and on the non transformed cells were tested at 10, 3.3, 1.1 and 0.37 μM as described above (in media lacking IL3). The IC50 values of the compounds lacking toxicity on the untransformed cells were determined from the dose response curves obtained as describe above.
# [3] = biological target: T3, wild type Bcr-abl (Ba/F3 cells) (Homo sapiens, UniProt P00519); test: Proliferation of Ba/F3 cells expressing wild type Bcr-abl; assay type: cell-based
# T3 construct: expressed in transfected cells; host or cells: Ba/F3 (murine pro-B cells); the other entry of the earlier key: BCR (P11274, Breakpoint cluster region protein)
# Method: as §1, §2
# Tie2 = biological target: T4, Tie2 (Homo sapiens, UniProt Q02763); test: Upstate KinaseProfiler radio-enzymatic filter binding assay; assay type: biochemical; settings: at a concentration of 10 μM; read-out: percentage inhibition of Tie2
# T4 construct: purchased Upstate
# Method: (§3) Compounds of the invention are assessed for their ability to inhibit individual members of a panel of kinases (a partial, non-limiting list of kinases includes: Abl, BMX, BTK, CHK2, c-RAF, CSK, c-SRC, Fes, FGFR3, Flt3, IKKα, IKKβ, JNK2α2, Lck, Met, MKK4, MKK6, MST2, NEK2, p70S6K, PDGFRβ, PKA, PKBα, PKD2, Rsk1, SAPK2α, SAPK2β, SAPK3, SGK, Tie2 and/or TrkB. The compounds are tested in duplicates at a final concentration of 10 μM following this generic protocol. Note that the kinase buffer composition and the substrates vary for the different kinases included in the “Upstate KinaseProfiler™” panel. Kinase buffer (2.5 μL, 10×—containing MnCl2 when required), active kinase (0.001-0.01 Units; 2.5 μL), specific or Poly(Glu4-Tyr) peptide (5-500 μM or 0.01 mg/ml) in kinase buffer and kinase buffer (50 μM; 5 μL) are mixed in an eppendorf on ice. A Mg/ATP mix (10 μL; 67.5 (or 33.75) mM MgCl2, 450 (or 225) μM ATP and 1 μCi/μl [γ-^32P]-ATP (3000 Ci/mmol)) is added and the reaction is incubated at about 30° C. for about 10 minutes. The reaction mixture is spotted (20 μL) onto a 2 cm×2 cm P81 (phosphocellulose, for positively charged peptide substrates) or Whatman No. 1 (for Poly (Glu4-Tyr) peptide substrate) paper square. The assay squares are washed 4 times, for 5 minutes each, with 0.75% phosphoric acid and washed once with acetone for 5 minutes. The assay squares are transferred to a scintillation vial, 5 ml scintillation cocktail are added and ^32P incorporation (cpm) to the peptide substrate is quantified with a Beckman scintillation counter. Percentage inhibition is calculated for each reaction.
# BMX = biological target: T5, BMX (Homo sapiens, UniProt P51813); test: as above; assay type: biochemical; settings: at a concentration of 10 μM; read-out: percentage inhibition of BMX
# T5 construct: purchased Upstate
# Method: as §3
# FGFR3 = biological target: T6, FGFR3 (Homo sapiens, UniProt P22607); test: as above; assay type: biochemical; settings: at a concentration of 10 μM; read-out: percentage inhibition of FGFR3
# T6 construct: purchased Upstate
# Method: as §3
# Fes = biological target: T7, Fes (Homo sapiens, UniProt P07332); test: as above; assay type: biochemical; settings: at a concentration of 10 μM; read-out: percentage inhibition of Fes
# T7 construct: purchased Upstate
# Method: as §3
# c-SRC = biological target: T8, c-SRC (Homo sapiens, UniProt P12931); test: as above; assay type: biochemical; settings: at a concentration of 10 μM; read-out: percentage inhibition of c-SRC
# T8 construct: purchased Upstate
# Method: as §3
# Lck = biological target: T9, Lck (Homo sapiens, UniProt P06239); test: as above; assay type: biochemical; settings: at a concentration of 10 μM; read-out: percentage inhibition of Lck
# T9 construct: purchased Upstate
# Method: as §3
# c-RAF = biological target: T10, c-RAF (Homo sapiens, UniProt P04049); test: as above; assay type: biochemical; settings: at a concentration of 10 μM; read-out: percentage inhibition of c-RAF
# T10 construct: purchased Upstate
# Method: as §3
# Bcr-Abl = test: as above; assay type: biochemical; settings: at a concentration of 10 μM
# Method: as §3
# T1 sequence (P09619 600-962 limits assumed): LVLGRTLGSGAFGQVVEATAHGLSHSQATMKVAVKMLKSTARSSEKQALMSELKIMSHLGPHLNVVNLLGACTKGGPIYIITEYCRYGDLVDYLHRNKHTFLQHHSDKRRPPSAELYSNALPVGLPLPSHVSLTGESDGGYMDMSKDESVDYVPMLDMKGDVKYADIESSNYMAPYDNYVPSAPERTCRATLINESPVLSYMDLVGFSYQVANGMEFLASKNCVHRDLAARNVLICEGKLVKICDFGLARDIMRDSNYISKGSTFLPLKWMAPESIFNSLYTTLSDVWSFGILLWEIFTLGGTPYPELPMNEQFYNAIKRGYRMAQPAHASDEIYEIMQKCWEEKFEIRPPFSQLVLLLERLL
# T5 sequence (P51813 whole entry): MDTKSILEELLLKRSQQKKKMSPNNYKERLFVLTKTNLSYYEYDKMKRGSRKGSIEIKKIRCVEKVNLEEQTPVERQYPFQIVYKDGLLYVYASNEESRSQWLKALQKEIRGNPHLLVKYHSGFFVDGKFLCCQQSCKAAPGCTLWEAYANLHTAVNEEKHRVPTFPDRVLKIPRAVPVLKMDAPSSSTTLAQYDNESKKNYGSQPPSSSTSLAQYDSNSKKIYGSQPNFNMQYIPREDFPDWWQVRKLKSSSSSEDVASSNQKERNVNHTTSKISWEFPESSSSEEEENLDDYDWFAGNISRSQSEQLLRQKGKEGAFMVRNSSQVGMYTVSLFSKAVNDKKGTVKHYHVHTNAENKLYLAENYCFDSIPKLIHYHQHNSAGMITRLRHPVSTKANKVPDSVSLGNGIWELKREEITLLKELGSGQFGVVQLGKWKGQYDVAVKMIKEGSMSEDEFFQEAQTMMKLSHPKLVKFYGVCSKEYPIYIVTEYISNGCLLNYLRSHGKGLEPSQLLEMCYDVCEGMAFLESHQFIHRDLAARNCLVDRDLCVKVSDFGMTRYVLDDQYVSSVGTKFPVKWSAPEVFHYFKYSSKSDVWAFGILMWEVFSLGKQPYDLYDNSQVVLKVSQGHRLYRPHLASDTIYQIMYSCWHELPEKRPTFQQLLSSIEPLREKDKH
# T2 sequence (P00519 28-1130 E255V limits assumed): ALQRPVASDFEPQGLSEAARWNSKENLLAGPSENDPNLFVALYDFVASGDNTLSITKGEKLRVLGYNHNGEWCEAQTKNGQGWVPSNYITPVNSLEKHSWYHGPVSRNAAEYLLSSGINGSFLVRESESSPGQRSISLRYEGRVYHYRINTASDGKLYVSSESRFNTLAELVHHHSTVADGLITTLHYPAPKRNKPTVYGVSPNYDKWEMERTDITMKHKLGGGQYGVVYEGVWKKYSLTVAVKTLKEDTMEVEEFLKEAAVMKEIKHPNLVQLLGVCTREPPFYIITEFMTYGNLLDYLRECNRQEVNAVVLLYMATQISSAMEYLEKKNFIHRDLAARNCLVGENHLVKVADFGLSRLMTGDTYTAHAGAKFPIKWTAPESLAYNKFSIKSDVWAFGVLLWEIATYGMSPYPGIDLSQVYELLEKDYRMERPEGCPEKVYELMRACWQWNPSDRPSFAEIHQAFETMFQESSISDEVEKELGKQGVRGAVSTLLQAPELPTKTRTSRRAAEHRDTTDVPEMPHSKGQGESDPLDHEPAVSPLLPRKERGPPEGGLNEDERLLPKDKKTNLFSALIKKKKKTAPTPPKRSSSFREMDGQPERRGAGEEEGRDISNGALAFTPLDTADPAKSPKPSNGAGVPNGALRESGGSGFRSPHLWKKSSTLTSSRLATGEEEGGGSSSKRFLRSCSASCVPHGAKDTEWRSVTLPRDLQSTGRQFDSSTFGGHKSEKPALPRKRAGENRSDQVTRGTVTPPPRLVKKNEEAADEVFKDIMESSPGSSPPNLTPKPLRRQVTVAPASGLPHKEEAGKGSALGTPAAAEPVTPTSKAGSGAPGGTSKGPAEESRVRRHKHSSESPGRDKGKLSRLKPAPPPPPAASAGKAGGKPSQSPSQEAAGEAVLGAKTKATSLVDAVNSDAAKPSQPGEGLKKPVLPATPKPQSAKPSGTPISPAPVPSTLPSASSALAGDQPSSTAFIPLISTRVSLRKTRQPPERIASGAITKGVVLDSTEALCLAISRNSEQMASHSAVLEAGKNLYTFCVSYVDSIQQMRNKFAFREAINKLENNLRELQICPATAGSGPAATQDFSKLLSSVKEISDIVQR
# T6 sequence (P22607 23-806): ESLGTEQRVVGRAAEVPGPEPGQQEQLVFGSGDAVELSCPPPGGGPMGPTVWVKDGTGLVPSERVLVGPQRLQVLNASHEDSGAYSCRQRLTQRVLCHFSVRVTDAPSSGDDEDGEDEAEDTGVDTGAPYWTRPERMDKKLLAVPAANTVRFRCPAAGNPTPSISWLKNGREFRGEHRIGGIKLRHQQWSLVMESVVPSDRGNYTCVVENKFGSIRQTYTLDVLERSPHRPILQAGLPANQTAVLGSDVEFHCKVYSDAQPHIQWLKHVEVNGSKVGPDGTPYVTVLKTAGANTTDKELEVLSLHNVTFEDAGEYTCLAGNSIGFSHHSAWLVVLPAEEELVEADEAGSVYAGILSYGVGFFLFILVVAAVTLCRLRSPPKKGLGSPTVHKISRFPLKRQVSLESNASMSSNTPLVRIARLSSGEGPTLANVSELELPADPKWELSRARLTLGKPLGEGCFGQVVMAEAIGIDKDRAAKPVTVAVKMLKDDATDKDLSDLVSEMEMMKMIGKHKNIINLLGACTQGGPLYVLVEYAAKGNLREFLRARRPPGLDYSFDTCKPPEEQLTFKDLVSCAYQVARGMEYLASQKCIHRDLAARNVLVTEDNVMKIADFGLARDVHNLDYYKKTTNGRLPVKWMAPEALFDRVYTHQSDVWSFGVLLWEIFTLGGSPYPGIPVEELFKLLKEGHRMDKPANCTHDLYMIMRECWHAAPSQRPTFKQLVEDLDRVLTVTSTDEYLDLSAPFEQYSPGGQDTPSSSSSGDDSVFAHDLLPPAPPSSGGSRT
# T7 sequence (P07332 whole entry): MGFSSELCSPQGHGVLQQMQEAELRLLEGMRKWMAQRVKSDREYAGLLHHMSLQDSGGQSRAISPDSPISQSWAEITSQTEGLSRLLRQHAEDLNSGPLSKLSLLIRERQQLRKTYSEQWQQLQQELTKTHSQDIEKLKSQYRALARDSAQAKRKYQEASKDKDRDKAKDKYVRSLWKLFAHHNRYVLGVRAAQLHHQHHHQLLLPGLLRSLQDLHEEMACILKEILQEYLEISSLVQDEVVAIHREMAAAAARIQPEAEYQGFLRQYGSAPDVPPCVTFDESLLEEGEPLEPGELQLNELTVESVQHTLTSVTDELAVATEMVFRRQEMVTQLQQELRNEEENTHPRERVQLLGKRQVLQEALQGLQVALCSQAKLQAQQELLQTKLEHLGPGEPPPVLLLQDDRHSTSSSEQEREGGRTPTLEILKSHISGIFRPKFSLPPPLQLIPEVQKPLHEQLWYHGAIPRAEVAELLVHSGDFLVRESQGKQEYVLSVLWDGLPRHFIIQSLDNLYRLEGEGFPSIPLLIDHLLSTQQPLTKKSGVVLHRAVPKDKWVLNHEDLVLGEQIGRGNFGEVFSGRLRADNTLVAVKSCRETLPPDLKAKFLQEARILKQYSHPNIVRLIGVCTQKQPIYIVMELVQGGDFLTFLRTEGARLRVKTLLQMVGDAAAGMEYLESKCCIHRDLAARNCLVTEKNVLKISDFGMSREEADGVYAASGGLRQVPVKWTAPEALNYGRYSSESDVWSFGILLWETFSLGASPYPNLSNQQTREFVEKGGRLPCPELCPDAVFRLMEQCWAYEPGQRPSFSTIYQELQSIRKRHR
# T8 sequence (P12931 whole entry): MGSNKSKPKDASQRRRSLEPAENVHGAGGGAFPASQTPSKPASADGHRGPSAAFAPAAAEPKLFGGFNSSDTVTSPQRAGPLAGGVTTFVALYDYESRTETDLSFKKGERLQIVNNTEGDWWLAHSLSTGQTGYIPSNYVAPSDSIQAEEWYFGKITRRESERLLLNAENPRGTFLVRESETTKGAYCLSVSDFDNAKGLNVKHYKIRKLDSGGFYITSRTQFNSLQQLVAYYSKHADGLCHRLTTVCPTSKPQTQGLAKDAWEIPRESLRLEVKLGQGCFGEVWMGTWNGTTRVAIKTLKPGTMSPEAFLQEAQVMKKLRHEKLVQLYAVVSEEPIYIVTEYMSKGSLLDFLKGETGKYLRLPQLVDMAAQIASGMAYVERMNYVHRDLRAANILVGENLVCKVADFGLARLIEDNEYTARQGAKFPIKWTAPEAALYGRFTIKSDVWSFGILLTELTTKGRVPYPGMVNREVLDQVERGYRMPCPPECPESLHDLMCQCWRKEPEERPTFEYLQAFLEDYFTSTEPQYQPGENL
# T9 sequence (P06239 whole entry): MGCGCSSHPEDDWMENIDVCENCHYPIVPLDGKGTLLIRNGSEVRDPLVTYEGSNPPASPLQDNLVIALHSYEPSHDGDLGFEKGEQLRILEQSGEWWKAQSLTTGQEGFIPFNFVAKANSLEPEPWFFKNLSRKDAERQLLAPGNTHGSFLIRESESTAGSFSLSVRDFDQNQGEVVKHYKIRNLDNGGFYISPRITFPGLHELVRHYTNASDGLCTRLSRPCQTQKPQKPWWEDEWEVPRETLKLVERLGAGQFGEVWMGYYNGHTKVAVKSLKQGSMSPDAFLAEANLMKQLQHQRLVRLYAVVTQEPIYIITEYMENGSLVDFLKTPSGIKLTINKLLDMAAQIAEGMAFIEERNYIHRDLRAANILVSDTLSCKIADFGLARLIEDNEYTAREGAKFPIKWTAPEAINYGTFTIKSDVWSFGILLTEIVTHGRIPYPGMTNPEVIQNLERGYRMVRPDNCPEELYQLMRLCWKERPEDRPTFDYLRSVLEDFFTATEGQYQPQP
# T3 sequence (P00519 28-1130 limits assumed): as the sequence (P00519 28-1130 E255V limits assumed) above, with V228E counted along it
structure (smiles),measurement,setting,value
"Cc1cn(-c2cc(C(=O)Nc3ccc(C)c(Nc4nccn4-c4ncnc5[nH]ccc45)c3)cc(C(F)(F)F)c2)cn1 [Example 2, 3-(4-methyl-imidazol-1-yl)-N-{4-methyl-3-[1-(7H-pyrrolo[2,3-d]pyrimidin-4-yl)-1H-imidazol-2-ylamino]-phenyl}-5-trifluoromethyl-benzamide]",IC50,[1],4 nM
same,IC50,[2],43 nM
same,IC50,[3],< 0.5 nM
same,inhibition at 10 µM,Tie2,99%
same,inhibition at 10 µM,BMX,99%
same,inhibition at 10 µM,FGFR3,89%
same,inhibition at 10 µM,Fes,71%
same,inhibition at 10 µM,c-SRC,100%
same,inhibition at 10 µM,Lck,99%
same,inhibition at 10 µM,c-RAF,98%
same,percentage inhibition of Bcr-Abl,Bcr-Abl,99%
